Measured values from patent publication US6998404B2, “Treatment or prevention of acute renal failure” (priority 2001, dated 2006).
Where two headings read alike, the source gives them in different places.

Legend:
[1] = radiocontrast nephropathy, impaired renal excretory, endocrine and tubular function, cited from earlier work
[2] = human trials, radio-contrast renal injury, IV, administered before the toxic insult; cited from earlier work
[3] = rat, glycerol-induced ARF, IV, administered before the toxic insult; cited from earlier work
[4] = patients, aminophylline toxicity; cited from earlier work
[5] = treatment of oliguric prerenal acute renal failure, need for dialysis; assay type: in vivo, human; settings: patients with acute renal failure progressed to oliguria (less than 300 ml urine output per day)
Excerpt: Adenosine receptor antagonists, especially aminophyllline, are used to treat or prevent acute renal failure. Adenosine antagonists are suited for prerenal acute renal failure only.

[6] = cyclosporin-A-induced renal failure with renal vasoconstriction; cited from earlier work

Cn1c(=O)c2[nH]cnc2n(C)c1=O [Theophyllin E]
protective role in preventing RCN [1]: effective in preventing RCN impaired renal excretory, endocrine and tubular function

Cn1c(=O)c2[nH]cnc2n(C)c1=O [aminophylline]
prevention of ARF [2]: dramatic in preventing ARF | prevention of ARF [3]: dramatic in preventing ARF | protective role in preventing RCN ([1]; listed as Aminophylline): does not appear to add a protective role in preventing RCN | serum theophylline level at which nausea and vomiting usually occur [4]: around 20 micrograms/ml | patients in whom the need for dialysis is obviated [5]: over 50%

Cn1c(=O)c2[nH]cnc2n(C)c1=O [theophylline]
restoration of renal function [6]: restored renal function significantly
